Assay results taken from patent US7153837B2, “Agent for protection of retinal neurons” (Ortho-McNeil Pharmaceutical Inc., priority 2001, dated 2006).

Key:
[1] = tested on: cultured retinal neurons of rat fetus; experiment: glutamate-induced death of cultured retinal neurons of rat fetus (trypan blue exclusion); assay type: cell-based; details: for Survival rate of cultured retinal neurons (%): 10 min, then 1 h drug-free, untreated 67, glutamate alone 46
Protocol: (1) Topiramate's Action on the Glutamate-Induced Death of Cultured Retinal Neurons of Rat Fetus: From rat fetuses (aged 17 to 19 days), retinal cells were taken out and isolated, and were cultured on a polyethylene-imine-coated plastic-covered slip in a 10% bovine fetal serum-containing Eagle's basal medium for seven days. From the eighth day, they were cultured in a 10% equine serum-containing Eagle's basal medium. On the sixth day of culture, cytosine arabinoside (10 μM) was added to inhibit the proliferation of non-neuronal cells. Next, the cells were incubated (37° C., 5% CO2.95% air) for 10 minutes in a medium which had been prepared by adding glutamate (1 mM) and topiramate in various concentrations (10 nM˜100 μM) to serum-free Eagle's basal medium. Then, cells were returned to serum-free Eagle's basal medium which contained neither glutamate nor topiramate, and were incubated (37° C., 5% CO2.95% air) for one hour, and, thereafter, toxicity was determined by trypan blue exclusion method. In detail, cells were immobilized with 10% neutral formalin solution, and were washed with physiological saline. Then, cells were dyed by adding trypan blue solution, and, thus, the number of cells was counted by phase-contrast microscope. Cells which had been dyed with trypan blue were regarded as dead, and non-dyed cells as surviving, and, thus, the survival rate of cultured cells was found from the proportion of the number of surviving cells to the number of total cells counted (at least 200). The group to which 1 mM of glutamate had been added and the group to which both 1 mM of glutamate and topiramate in various concentrations had been added are respectively called “Single 1 mM glutamate added group” and “1 mM glutamate+topiramate (various concentrations) added group”. Results concerning these groups were compared with the corresponding measured values of “Untreated group”, i.e., a group which had received no treatments. The values in the table are average values.

[2] = tested on: ischemia-induced retinal damage; experiment: ischemia-induced retinal damage in rat (ischemia-reperfusion, retinal histology); assay type: in vivo
Source text: (2) Topiramate's Action on Ischemia-Induced Retinal Damage in Rat:
Anesthesia was indued in rat with 3% halothane, and, then, anesthesia was maintained with 1% halothane (halothane was vaporized with 0.5 l oxygen/min. and 1.5 l dinitrogen monoxider/min.). Next, mydriasis was caused in right eye with atropine, and, then, 30 G injection needle which was connected with a vessel of physiological saline for instillation via a tube hung from the ceiling was stuck into anterior chamber, and, thus, a 130 mmHg hydraulic pressure was given, and ischemia was thereby induced After 45 minutes, the injection needle was removed, and retinal blood flow was allowed to make reperfusion. Administration was conducted by intraperitoneal injection into rats with physiological saline (solvent) and topiramate (200 mg/kg body weight) dissolved (partially suspended) in solvent, respectively. The administration was carried out twice respectively, i.e., two hours before and immediately after inschemia. Seven days after the administration, eyeball was taken out, immobilized overnight in 2% paraformaldehyde-2.5% glutaraldehyde, subjected to paraffin embedding, and was sectioned, and, thus, retinal slices (with a thickness of 3 μm) stained with hematoxylin-eosin (HE) were prepared. From eight slices which had been cut with an interval of 60 μm per one eyeball so that optic nerve head might be covered, three slices were optionally selected. With regard to thus selected three slices, there was taken a photograph of retina in the range of 1 to 1.5 mm on the left or right side from optic nerve head, and, thus, the number of cells in ganglion cell layer (GCL) in retina and the thickness of inner plaxiform layer (IPL) were measured. The group to which solvent had been administered and ischemia had been induced and the group to which topiramate dissolved in solvent had been administered and ischemia had been induced are respectively called “Solvent-administered group” and “Topiramate-administered group”. […]

With `CC1(C)O[C@@H]2[C@@H](CO[C@@]3(COS(N)(=O)=O)OC(C)(C)O[C@@H]23)O1` [topiramate, 2,3:4,5-bis-O-(1-methylethylidene)-β-D-fructopyranose sulfamate] the “Survival rate of cultured retinal neurons (%)” value (shortened to “Survival rate … (%)”) ([1]; 1 mM glutamate + 10 nM topiramate) was 50%, the “Survival rate … (%)” value ([1]; 1 mM glutamate + 100 nM topiramate) was 58% and the “Survival rate … (%)” value ([1]; 1 mM glutamate + 1 μM topiramate) was 60%. The “Survival rate … (%)” value ([1]; 1 mM glutamate + 10 μM topiramate) was 64%, the “Survival rate … (%)” value ([1]; 1 mM glutamate + 100 μM topiramate) was 65% and the “effect on death (apoptosis) of cultured retinal neurons” value ([1]; 1 mM glutamate, topiramate 10 nM-100 μM, summary of Table 1) was “remarkably inhibit the death (apoptosis) of cultured retinal neurons in a concentration-dependent manner”. The “Thickness of IPL (μm)” value ([2]; 200 mg/kg intraperitoneal twice (2 h before and immediately after 45 min ischemia), 7 days after, normal 49, solvent 21) was 30 μm, the “Number of cells in GCL (number/mm)” value ([2]; 200 mg/kg intraperitoneal twice (2 h before and immediately after 45 min ischemia), 7 days after, normal 68, solvent 36) was 44 number/mm and the “effect on decrease of number of cells in ganglion cell layer and thinning of inner plexiform layer” value ([2]; 200 mg/kg intraperitoneal, summary of Table 2) was “excellent in effectively preventing both the decrease of number of cells in ganglion cell layer and the thinning of inner plexiform layer”.
